We go through 6 compounds from PMC8692984 (Frontiers in Pharmacology, 2021).

Where “and” joins values, the source holds several entries; their conditions need not be identical. Equal entries are not always repeated. Bridge positions count the residues as written; N and C are the ends. Peptide text beside a SMILES is read from it.

In assay [1] the target is T1, α7 nAChRs (Homo sapiens, UniProt P36544).
Assay [2] deals with T1, α7 nAChRs. The source holds these as a separate data set.
The next assay concerns the target Ls-AChBP (Lymnaea stagnalis, UniProt P58154). Put plainly: biochemical. The note with it: SEM.

T1 sequence (P36544 23-502): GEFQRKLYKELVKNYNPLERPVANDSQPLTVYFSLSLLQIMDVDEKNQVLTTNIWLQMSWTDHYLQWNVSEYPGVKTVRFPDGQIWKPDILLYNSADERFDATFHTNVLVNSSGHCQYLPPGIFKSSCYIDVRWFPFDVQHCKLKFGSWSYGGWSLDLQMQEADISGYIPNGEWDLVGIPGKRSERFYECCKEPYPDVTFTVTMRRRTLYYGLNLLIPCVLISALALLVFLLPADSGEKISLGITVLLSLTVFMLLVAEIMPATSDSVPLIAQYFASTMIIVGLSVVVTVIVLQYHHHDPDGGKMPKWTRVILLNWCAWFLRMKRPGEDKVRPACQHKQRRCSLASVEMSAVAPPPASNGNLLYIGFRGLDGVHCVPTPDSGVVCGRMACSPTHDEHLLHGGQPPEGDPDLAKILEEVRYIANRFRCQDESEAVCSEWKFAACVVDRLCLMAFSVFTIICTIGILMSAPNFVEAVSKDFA
Chain of Ls-AChBP (P58154 20-229 limits assumed): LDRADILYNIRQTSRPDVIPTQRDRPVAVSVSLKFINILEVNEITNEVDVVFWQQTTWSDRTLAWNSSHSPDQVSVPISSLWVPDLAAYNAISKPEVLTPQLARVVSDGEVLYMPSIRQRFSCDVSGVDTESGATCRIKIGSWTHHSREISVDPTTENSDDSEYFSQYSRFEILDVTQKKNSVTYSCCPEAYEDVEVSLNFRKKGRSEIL

For `CC[C@H](C)[C@@H]1NC(=O)[C@H](Cc2c[nH]cn2)NC(=O)[C@@H]2CCCN2C(=O)[C@H](CC(N)=O)NC(=O)[C@H](CC(N)=O)NC(=O)[C@H](C(C)C)NC(=O)[C@H](CC(N)=O)NC(=O)[C@@H]2CSSC[C@H](NC(=O)CN)C(=O)N[C@@H](CSSC[C@@H](C(=O)NCC(N)=O)NC1=O)C(=O)N[C@@H](CO)C(=O)N[C@@H](Cc1c[nH]cn1)C(=O)N1CCC[C@H]1C(=O)N[C@@H](C)C(=O)N2` [OmIA] (H-GCCSHPACNVNNPHICG-NH2; disulfide 2-8, 3-16), on α7 nAChRs [1], the “residual response at TQS-α7 nAChRs” value was about 15%. Further, the “extent of inhibition of α7 nAChR responses to choline” value at α7 nAChRs [2] is about 50%.

Consider `CC[C@H](C)[C@@H]1NC(=O)[C@H](Cc2cnc[nH]2)NC(=O)[C@@H]2CCCN2C(=O)[C@H](CC(N)=O)NC(=O)[C@H](CC(N)=O)NC(=O)[C@H](C(C)C)NC(=O)[C@H](CC(N)=O)NC(=O)[C@@H]2CSSC[C@H](NC(=O)CN)C(=O)N[C@@H](CSSC[C@@H](C(=O)NCC(N)=O)NC1=O)C(=O)N[C@@H](CO)C(=O)N[C@@H](Cc1cnc[nH]1)C(=O)N1CCC[C@H]1C(=O)N[C@@H](C)C(=O)N2` [OmIA] (H-GCCSHPACNVNNPHICG-NH2; disulfide 2-8, 3-16), for which, at Ls-AChBP, 0.28 ± 0.07 µM corresponded to half-maximal inhibition (IC50).

For `CC[C@H](C)[C@@H]1NC(=O)[C@H](Cc2c[nH]cn2)NC(=O)[C@@H]2CCCN2C(=O)[C@H](CC(N)=O)NC(=O)[C@H](CC(N)=O)NC(=O)[C@H](C(C)C)NC(=O)[C@H](Cc2c[nH]cn2)NC(=O)[C@@H]2CSSC[C@H](NC(=O)CN)C(=O)N[C@@H](CSSC[C@@H](C(=O)NCC(N)=O)NC1=O)C(=O)N[C@@H](CO)C(=O)N[C@@H](Cc1c[nH]cn1)C(=O)N1CCC[C@H]1C(=O)N[C@@H](C)C(=O)N2` [[N9H]OmIA] (H-GCCSHPACHVNNPHICG-NH2; disulfide 2-8, 3-16), the “residual response at TQS-α7 nAChRs” value on α7 nAChRs [1] is given as about 15%. On Ls-AChBP, the IC50 was 0.73 ± 0.05 µM. Besides, the “extent of inhibition of α7 nAChR responses to choline” value at α7 nAChRs [2] was about 50%.

Consider `CC[C@H](C)[C@@H]1NC(=O)[C@H](Cc2c[nH]cn2)NC(=O)[C@@H]2CCCN2C(=O)[C@H](CC(N)=O)NC(=O)[C@H](CC(N)=O)NC(=O)[C@H](C)NC(=O)[C@H](CC(N)=O)NC(=O)[C@@H]2CSSC[C@H](NC(=O)CN)C(=O)N[C@@H](CSSC[C@@H](C(=O)NCC(N)=O)NC1=O)C(=O)N[C@@H](CO)C(=O)N[C@@H](Cc1c[nH]cn1)C(=O)N1CCC[C@H]1C(=O)N[C@@H](C)C(=O)N2` [[V10A]OmIA] (H-GCCSHPACNANNPHICG-NH2; disulfide 2-8, 3-16), for which the “Choline EC50 ± SEM at TQS-α7 nAChRs in the presence of peptide” value on α7 nAChRs [1] is 3 ± 0.20 and 4 ± 1.00 and 5 ± 0.48. Besides, at α7 nAChRs [2], the “Choline EC50 ± SEM at PNU120596-α7 nAChRs in the presence of peptide” value is 7 ± 1.20 and 8 ± 0.47 and 11 ± 1.20; the “mode of antagonism at PNU120596-α7 nAChRs” value is “fully insurmountable antagonism”. Besides, on α7 nAChRs [2] (SEM), the “Fraction 2 ± SEM at PNU120596-modified α7 nAChRs” value is 0.58 ± 0.04 and 0.57 ± 0.11 and 0.37 ± 0.04.

Turning to `CC[C@H](C)[C@@H]1NC(=O)[C@H](Cc2c[nH]cn2)NC(=O)[C@@H]2CCCN2C(=O)[C@H](CC(N)=O)NC(=O)[C@H](CC(N)=O)NC(=O)[C@H](CC(C)C)NC(=O)[C@H](CC(N)=O)NC(=O)[C@@H]2CSSC[C@H](NC(=O)CN)C(=O)N[C@@H](CSSC[C@@H](C(=O)NCC(N)=O)NC1=O)C(=O)N[C@@H](CO)C(=O)N[C@@H](Cc1c[nH]cn1)C(=O)N1CCC[C@H]1C(=O)N[C@@H](C)C(=O)N2` [[V10L]OmIA] (H-GCCSHPACNLNNPHICG-NH2; disulfide 2-8, 3-16), on α7 nAChRs [1], the “increase of OmIA IC50 at TQS-α7 nAChRs” value is recorded as 10 fold. This compound returned an IC50 on Ls-AChBP of 0.68 ± 0.13 µM.

The compound `CC[C@H](C)[C@@H]1NC(=O)[C@H](Cc2c[nH]cn2)NC(=O)[C@@H]2CCCN2C(=O)[C@H](CC(N)=O)NC(=O)[C@H](CC(N)=O)NC(=O)[C@H]([C@@H](C)O)NC(=O)[C@H](CC(N)=O)NC(=O)[C@@H]2CSSC[C@H](NC(=O)CN)C(=O)N[C@@H](CSSC[C@@H](C(=O)NCC(N)=O)NC1=O)C(=O)N[C@@H](CO)C(=O)N[C@@H](Cc1c[nH]cn1)C(=O)N1CCC[C@H]1C(=O)N[C@@H](C)C(=O)N2` [[V10T]OmIA] (H-GCCSHPACNTNNPHICG-NH2; disulfide 2-8, 3-16) came in with an IC50 at Ls-AChBP of 1 ± 0.05 µM. Besides, on α7 nAChRs [2], the “residual response at PNU120596-α7 nAChRs” value came out at 60%.
